Legend:
[1] = system: Staphylococcus aureus (ATCC 43300, MRSA); experiment: In vivo efficacy in MRSA-infected moth larvae; parameters: species or system Galleria mellonella; settings: 24 h after drug administration; vs 10 % DMSO control; rifampicin 0.4 mg/mL, 10 µL
Method: Ethics Committee was obtained for use of human blood for haemolysis studies (approval number […]
G. mellonella larvae were reared in controlled environmental room at Macquarie University, Sydney, Australia at 26 °C and 65% humidity with a 12-hours light/dark cycle. Larvae (~200 mg) were individually injected with 10 µL of chemical into the last right proleg using a 100 μL syringe (Hamilton Ltd). The […]
Each compound was dissolved in DMSO and diluted to final concentrations of 1 µM, 100 µM and 10 mM. We injected 5 larvae for each dilution of each compound.
Larvae injected with different dilutions of DMSO (10-1, 10-3 and 10-5) were included as negative controls.
Following injection, the larvae were incubated at 26 °C and monitored every 24 h for 4 days. Larval performance was assessed according to the G. mellonella Health Index Scoring System.[1] The experiments were repeated three separate times.
Galleria larvae (weighing between 200-250 mg) were infected with […] cells of Staphylococcus aureus (ATCC 43300, MRSA) (suspended in 10 µL PBS) and incubated at 37 °C. Two hours later, 10 µL compounds of either Pt1 or Pt2 (0.4 mM) in 10% DMSO was injected to the other proleg of the larvae.
Larvae injected with 10% DMSO and Rifampicin (0.4 mg/mL) were included as controls. […] Bacterial number was determined by drop plate method. […] Bacterial number was counted after incubation for 24 h.

[2] = parameters: method as in PMID 33469147; settings: mouse skin infection models, topical; cited from earlier work

For `CO[C@H]1/C=C/O[C@@]2(C)Oc3c(C)c(O)c4c(O)c(c(/C=N/N5CCN(C)CC5)c(O)c4c3C2=O)NC(=O)/C(C)=C\C=C\[C@H](C)[C@H](O)[C@@H](C)[C@@H](O)[C@@H](C)[C@H](OC(C)=O)[C@@H]1C` [Rifampicin], the “reduction in CFU (bacterial load per larva)” value [1] was 2 log.
In the case of `C=C(C)[C@@H]1CCC(C)=C[C@H]1c1c(O)cc(CCCCC)cc1O` [cannabidiol], the bacterial load [2] is given as “able to reduce bacterial load”.

— PMC8596843, “Platinum Cyclooctadiene Complexes with Activity against Gram‐positive Bacteria” (Chemmedchem, 2021)
